The record followed here is PMC6853232, “Discovery and evaluation of novel synthetic 5-alkyl-4-oxo-4,5-dihydro-[1,2,4]triazolo[4,3-a]quinoxaline-1-carbox-amide derivatives as anti-inflammatory agents” (Journal of Enzyme Inhibition and Medicinal Chemistry, 2019).

Several values for one entry are separate records, joined by “and”; a condition that tells them apart may be missing. Equal values may be shown once. Marks after values point to notes of the source that are not given here.

A short description of series [1]: MTT assay for cell viability. The class given is cell-based, mouse. The settings on record: mouse, RAW264.7 macrophage cells, 24 h, RAW264.7 cells. The protocol: (§1) The RAW 264.7 mouse macrophage cell line was obtained from the China Cell Line Bank (Beijing, China). Cells were cultured in complete medium (DMEM supplemented with 10% heat-inactivated FBS, 3 mM glutamine and antibiotics (100 U/mL penicillin and 100 U/mL streptomycin)) at 37 °C in a humidified incubator containing 5% CO2 and 95% air. […]
(§2) Cell viability studies induced by synthesised compounds were evaluated by 3-(4,5-dimethylthiazol-2-yl)-2,5-diphenyltetrazolium bromide (MTT) assay. RAW264.7 macrophages were seeded in 96-well plates at a density of 5 × 10^5 cells/mL in complete medium and incubated for 24 h (100 µL/well). Then the cells were treated with different concentrations of synthesised compounds for 24 h. 150 µL MTT (5 g/L in PBS) was added to each well and the cells were further incubated for 4 h. The supernatant was removed and the cells were lysed with 150 µL/well DMSO. The optical density was measured at 570 nm on a microplate reader (Thermo Scientific, MA, USA).

The subject of series [2] is LPS-induced NO production in RAW264.7 macrophages. Nature of the series: Inhibition of LPS-induced NO production (Griess). The class given is cell-based, mouse. The following applies: 10 µM. The protocol:
The RAW 264.7 mouse macrophage cell line was obtained from the China Cell Line Bank (Beijing, China). Cells were cultured in complete medium (DMEM supplemented with 10% heat-inactivated FBS, 3 mM glutamine and antibiotics (100 U/mL penicillin and 100 U/mL streptomycin)) at 37 °C in a humidified incubator containing 5% CO2 and 95% air. Cells were treated with various concentrations of synthesised compounds for 30 min followed by stimulation with LPS ([…]).
Nitrite, a stable product of nitric oxide, was used to assess NO production. To study the effects of the isolated compounds on NO production, RAW264.7 cells were plated at 1 × 10^5 cells/well in a 96-well microplate and incubated overnight. The cells were pre-treated with various concentrations of the test compounds (3, 7.5, 10, 15, 30 or 100 µM) and further co-cultured with 1 µg/mL LPS for 24 h. Un-pre-treated and un-stimulated RAW 264.7 cells were conducted as the blank control group. At different time points, the supernatant (50 µL) was assayed with NO assay kit. The culture supernatant (50 µL) was mixed with an equal volume of the Griess reagent (1% sulphanilamide, 0.1% N-[1-naphthy] ethylenediamine dihydrochloride) and NO production were determined at 540 nm with an ELISAplate reader.
(In general: Griess reagent forms a coloured azo dye with nitrite.)

Series [3] relates to carrageenan-induced paw oedema. Nature of the series: Carrageenan-induced paw oedema model. The following applies: 25 mg/kg p.o., n = 4. The class given is in vivo, rats. From the text: The animal procedures were in strict accordance with the National Institutes of Healthy Guidelines for the Care and Use of Laboratory Animals (NIH Publication No. 85-23, revised 1996) and were approved by the Institutional Animal Care and Utilisation Committee of Yanbian University. Male albino rats weighing 280–300 gwere obtained from Animal Department of Yanbian University . They were kept in the animal house under standard condition of light and temperature with free access to food and water. The animals were randomly divided into five groups (control, D1, 6p, ibuprofen and celecoxib group) The groups with D1, 6p, ibuprofen and celecoxib were administered oral administration (p.o.) 25 mg/kg in a vehicle of 0.5% methylcellulose, respectively. The negative control group was treated with the same vehicle (0.5% methylcellulose). A solution of carrageenan (0.1 ml, 1.0% w/v in 0.9% of normal saline) was injected into the subplanter region of the left hind paw under light ether anaesthesia 1 h after oral administration (p.o.) of the test compound (at a dose level of 25 mg/kg body weight). The paw volume was measured at hourly interval for 5 h (0, 1, 3 and 5 h) and the percent inhibition of oedema was calculated using formula: %Inhibition=(Vt−Vo)control−(Vt−Vo)tested compound /(Vt−Vo)control×100 where, • Vo = volume of oedema at zero time interval. • Vt = volume of oedema at specific time interval.

The subject of series [4] is gastric mucosa (stomach lesions). Put plainly: Ulcerogenic effect. The settings on record: 25 mg/kg p.o. once a day for three days, rats. The class given is in vivo. The protocol:
The lead compound D1 and the newly synthesised compound 6p were subjected to in vivo testing to measure their ulcerogenic effect in comparison to celecoxib and ibuprofen. Male albino rats (220–250 g) divided into 5 groups (control, D1, 6p, ibuprofen and celecoxib group) of five rats each. The groups with D1, 6p, ibuprofen, and celecoxib were administered oral administration (p.o.) 25 mg/kg in a vehicle of 0.5% methylcellulose, respectively. The negative control group was treated with the same vehicle (0.5% methylcellulose). All groups were orally administered once a day for three consecutive days. Animals were sacrificed by diethyl ether 6 h after the last dose and the stomach was removed. An opening at the greater curvature was made and the stomach was cleaned by washing with cold saline and inspected with a three-time magnifying lens for any evidence of hyperaemia, haemorrhage, definite haemorrhagic erosion, or ulcer. An arbitrary scale was used to calculate the ulcer index which indicates the severity of the stomach lesions The % ulceration for each group was calculated as follows: % Ulceration = Number of animals bearing ulcer in a group/Total number of animals in the same group ×100.

In the next series the test system is RAW264.7 cells. Nature of the series: MTT assay for cell viability. The class given is cell-based, mouse. The following applies: LPS 1 μg/mL. The protocol: as §1, §2
(In general: Tetrazolium assays rely on reduction of a dye to a coloured formazan, in cell work by metabolically active cells.)

`CCCCCCCCn1c(=O)c2nnc(C(N)=O)n2c2ccccc21` [6e, 5-octyl-4-oxo-4,5-dihydro-[1,2, 4]triazolo[4,3-a]quinoxaline-1-carboxamide]: the melting point (in general, the temperature, or range, at which the solid turns liquid) lay in the range of 230 to 232 °C. Moreover, the viability (as a rule, a read-out of living cells in per cent, often relative to untreated cells) at 24 h, 30 µM in series [1] came to 99.5 ± 2.3%. The “anti-inflammatory activity (NO) within 5-alkyl derivatives 6a–6f” value in series [2] (SAR ranking) is given as “the most active”.

With `COc1ccc(Cn2c(=O)c3nnc(C(N)=O)n3c3ccccc32)cc1` [6o, 5-(4-methoxybenzyl)-4-oxo-4,5-dihydro-[1,2, 4]triazolo[4,3-a]quinoxaline-1-carboamide], the melting point lay in the range of 264 to 266 °C. In series [1], this compound returned a viability at 24 h, 30 µM of 80.1 ± 1%.

`NC(=O)c1nnc2c(=O)n(Cc3ccc(Cl)cc3Cl)c3ccccc3n12` [6q, 5-(2,4-dichlorobenzyl)-4-oxo-4,5-dihydro-[1,2, 4]triazolo[4,3-a]quinoxaline-1-carboxamide] displayed a melting point of 266 to 268 °C. For the same compound, the viability at 24 h, 10 µM in series [1] (10 μM) amounted to 84.7 ± 6.49%. In series [1], the viability at 24 h, 30 µM was 56.7 ± 1.34%.

Compound `NC(=O)c1nnc2c(=O)n(Cc3cccc(C(F)(F)F)c3)c3ccccc3n12` [6r, 5-(3-(Trifluoromethyl)benzyl)-4-oxo-4,5-dihydro-[1,2, 4]triazolo[4,3-a]quinox-aline-1-carboxamide] yielded a melting point of 262 to 264 °C. In series [1], this compound returned a viability at 24 h, 30 µM of 99.3 ± 0.6%.

The compound `NC(=O)c1nnc2c(=O)n(Cc3ccc([N+](=O)[O-])cc3)c3ccccc3n12` [6s, 5-(4-nitrobenzyl)-4-oxo-4,5-dihydro-[1,2, 4]triazolo[4,3-a]quinoxaline-1-carb-oxamide] had a melting point of 273 to 275 °C. This compound showed a viability at 24 h, 30 µM in series [1] of 80.1 ± 1.34%.

Turning to `N#Cc1ccc(Cn2c(=O)c3nnc(C(N)=O)n3c3ccccc32)cc1` [6t, 5-(4-cyanobenzyl)-4-oxo-4,5-dihydro-[1,2, 4]triazolo[4,3-a]quinoxaline-1-carboxamide], the melting point was in the range of 298 to 300 °C. Besides, the viability at 24 h, 30 µM in series [1] is 90.3 ± 1.21%.

Turning to `Cc1ccc(-c2cc(C(F)(F)F)nn2-c2ccc(S(N)(=O)=O)cc2)cc1` [Celecoxib], the “% of oedema inhibition (% mean ± SD)” value was found to be 48.09 ± 5.33% in series [3] (1 h); 58.34 ± 4.08% in series [3] (3 h, 25 mg/kg); 58.34% in series [3] (3 h, listed as celecoxib, 25 mg/kg); 41.92 ± 2.05% in series [3] (5 h).

`Cc1cccc(Oc2nn3c(C(N)=O)nnc3c3ccccc23)c1` [D1] returned a viability at 24 h, 30 µM in series [1] of 96.3 ± 1.72%. The inhibition – broadly, the share of the control response that was lost under treatment – at 10 µM in series [2] (Mus musculus, RAW264.7, LPS 1 µg/mL, 24 h, read-out: NO inhibitory activity (% inhibition)) worked out at 10.3%. The “% of oedema inhibition (% mean ± SD)” value in series [3] (1 h) is 38.26 ± 2.82%; in series [3] (3 h, 25 mg/kg), 42.81% and 42.81 ± 2.11%; in series [3] (5 h), 28.71 ± 2.92%. Further, the “% ulceration” value in series [4] is 20%.

With `CC(C)Cc1ccc(C(C)C(=O)O)cc1` (centres unmarked) [Ibuprofen], the “% of oedema inhibition (% mean ± SD)” value in series [3] (1 h) came out at 31.92 ± 5.76%; in series [3] (3 h, 25 mg/kg), 39.30 ± 4.86%; in series [3] (3 h, listed as ibuprofen, 25 mg/kg), 39.30%; in series [3] (5 h) it was 25.29 ± 3.43%.

As for “lipopolysaccharide [LPS, reference compound]”, the “Cell viability (%)” value in the series with RAW264.7 cells is listed as 98.60 ± 2.12^a %.
